Laboratory results: PubChem BioAssay AID256 (DTP/NCI, 2004)
Where “and” joins values, the source holds several entries; their conditions need not be identical. Equal values may be shown once. Toxic doses and inconclusive results are not listed. How the source made its calls: active means survival T/C of 150% or more; inactive means T/C below 125% in these data.

System: CD2F1 mice, L1210 leukemia ip, survival T/C
Assay: NCI In Vivo Anticancer Drug Screen. Data for tumor model L1210 Leukemia (intraperitoneal) in CD2F1 (CDF1) mice
Settings: higher = longer survival
Procedure, shortened: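 Activity against a transplanted murine tumor was judged by comparing the compound group with a vehicle group. The outcome in the treated animals was divided by that in the controls.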

[1] = endpoint: mean survival time, dose: 100.0 mg/kg/injection, schedule: Q01DX001 (ip), vehicle: Klucel (hydroxypropylcellulose) (HPC)
[2] = endpoint: mean survival time, dose: 200.0 mg/kg/injection, schedule: Q01DX001 (ip), vehicle: Klucel (hydroxypropylcellulose) (HPC)
[3] = endpoint: mean survival time, dose: 400.0 mg/kg/injection, schedule: Q01DX001 (ip), vehicle: Klucel (hydroxypropylcellulose) (HPC)
[4] = endpoint: mean survival time, dose: 50.0 mg/kg/injection, schedule: Q04DX003 (ip), vehicle: saline
[5] = endpoint: mean survival time, dose: 100.0 mg/kg/injection, schedule: Q04DX003 (ip), vehicle: saline
[6] = endpoint: mean survival time, dose: 200.0 mg/kg/injection, schedule: Q04DX002 (ip), vehicle: saline with Tween-80
[7] = endpoint: mean survival time, dose: 100.0 mg/kg/injection, schedule: Q01DX009 (ip), vehicle: saline with Tween-80
[8] = endpoint: mean survival time, dose: 100.0 mg/kg/injection, schedule: Q04DX003 (ip), vehicle: saline with Tween-80
[9] = endpoint: mean survival time, dose: 200.0 mg/kg/injection, schedule: Q01DX009 (ip), vehicle: saline with Tween-80
[10] = endpoint: mean survival time, dose: 200.0 mg/kg/injection, schedule: Q04DX003 (ip), vehicle: saline with Tween-80
[11] = endpoint: mean survival time, dose: 400.0 mg/kg/injection, schedule: Q01DX009 (ip), vehicle: saline with Tween-80
[12] = endpoint: mean survival time, dose: 400.0 mg/kg/injection, schedule: Q04DX003 (ip), vehicle: saline with Tween-80
[13] = endpoint: mean survival time, dose: 100.0 mg/kg/injection, schedule: Q01DX001 (ip), vehicle: saline with Tween-80
[14] = endpoint: mean survival time, dose: 100.0 mg/kg/injection, schedule: Q01DX009 (ip), vehicle: Klucel (hydroxypropylcellulose) (HPC)
[15] = endpoint: mean survival time, dose: 200.0 mg/kg/injection, schedule: Q01DX001 (ip), vehicle: saline with Tween-80
[16] = endpoint: mean survival time, dose: 200.0 mg/kg/injection, schedule: Q01DX009 (ip), vehicle: Klucel (hydroxypropylcellulose) (HPC)
[17] = endpoint: mean survival time, dose: 400.0 mg/kg/injection, schedule: Q01DX001 (ip), vehicle: saline with Tween-80
[18] = endpoint: mean survival time, dose: 200.0 mg/kg/injection, schedule: Q04DX003 (ip), vehicle: saline

Measured: T/C

N#Cc1nc(/C=C\c2ccc3c(c2)OCO3)cnc1N
inactive: [1] 90 % of control | [2] 90 % of control | [3] 90 % of control

Cc1ccc(S(=O)(=O)CN(O)C(N)=O)cc1
inactive: endpoint: mean survival time, dose: 7.5 mg/kg/injection, schedule: Q01DX009 (ip), vehicle: saline with Tween-80 93 % of control | endpoint: mean survival time, dose: 15.0 mg/kg/injection, schedule: Q01DX009 (ip), vehicle: saline with Tween-80 102 % of control | endpoint: mean survival time, dose: 30.0 mg/kg/injection, schedule: Q01DX009 (ip), vehicle: saline with Tween-80 93 % of control | endpoint: mean survival time, dose: 60.0 mg/kg/injection, schedule: Q01DX009 (ip), vehicle: saline with Tween-80 107 % of control | endpoint: mean survival time, dose: 120.0 mg/kg/injection, schedule: Q01DX009 (ip), vehicle: saline with Tween-80 105 % of control | endpoint: mean survival time, dose: 240.0 mg/kg/injection, schedule: Q01DX009 (ip), vehicle: saline with Tween-80 115 % of control

O=C1Cc2cccc(=O)c(O)c2C(=O)O1
inactive: endpoint: mean survival time, dose: 25.0 mg/kg/injection, schedule: Q04DX003 (ip), vehicle: saline 96 % of control | [4] 104 % of control | [5] 94 % of control

CN(C)C(=O)Sc1ccc(N(C)C)cc1
inactive: [6] 107 % of control | endpoint: mean survival time, dose: 400.0 mg/kg/injection, schedule: Q04DX002 (ip), vehicle: saline with Tween-80 107 % of control

O=C(Nc1ccc(F)cc1)c1cccc(Cl)c1
inactive: [7] 98 % of control | [8] 94 % of control | [9] 90 % of control | [10] 94 % of control | [11] 96 % of control | [12] 95 % of control

CCOC(=O)N1C=Cc2ccccc2C1/C(N)=N/O (centres undefined)
inactive: [13] 98 % of control | [14] 96 % of control | [15] 95 % of control | [16] 91 % of control | [17] 94 % of control | endpoint: mean survival time, dose: 400.0 mg/kg/injection, schedule: Q01DX009 (ip), vehicle: Klucel (hydroxypropylcellulose) (HPC) 91 % of control

Clc1ccc(Nc2ccccc2)cc1
inactive: endpoint: mean survival time, dose: 100.0 mg/kg/injection, schedule: Q01DX001 (ip), vehicle: other 90 % of control | endpoint: mean survival time, dose: 200.0 mg/kg/injection, schedule: Q01DX001 (ip), vehicle: other 90 % of control | endpoint: mean survival time, dose: 400.0 mg/kg/injection, schedule: Q01DX001 (ip), vehicle: other 90 % of control

CCOc1ccc(NC(=O)OCC(C)C)cc1
inactive: [13] 97 % of control | [15] 101 % of control | [17] 89 % of control

COc1ccc(/C=C/c2ccc([N+](=O)[O-])cc2)cc1
inactive: [8] 102 % of control | [10] 100 % of control | [12] 100 % of control

c1coc(CNc2ncnc3c2ncn3CCCCCCn2cnc3c(NCc4ccco4)ncnc32)c1
inactive: endpoint: mean survival time, dose: 1.0 mg/kg/injection, schedule: Q01DX005 (ip), vehicle: other 95 % of control | endpoint: mean survival time, dose: 2.0 mg/kg/injection, schedule: Q01DX005 (ip), vehicle: other 92 % of control | endpoint: mean survival time, dose: 4.0 mg/kg/injection, schedule: Q01DX005 (ip), vehicle: other 95 % of control | endpoint: mean survival time, dose: 16.0 mg/kg/injection, schedule: Q01DX005 (ip), vehicle: other 95 % of control

CN(C)N=Nc1cccc(C(N)=O)c1
inactive: endpoint: mean survival time, dose: 5.0 mg/kg/injection, schedule: Q01DX009 (ip), vehicle: Klucel (hydroxypropylcellulose) (HPC) 112 % of control | endpoint: mean survival time, dose: 10.0 mg/kg/injection, schedule: Q01DX009 (ip), vehicle: Klucel (hydroxypropylcellulose) (HPC) 113 % of control | endpoint: mean survival time, dose: 20.0 mg/kg/injection, schedule: Q01DX009 (ip), vehicle: Klucel (hydroxypropylcellulose) (HPC) 117 % of control | endpoint: mean survival time, dose: 80.0 mg/kg/injection, schedule: Q01DX009 (ip), vehicle: Klucel (hydroxypropylcellulose) (HPC) 113 % of control | endpoint: mean survival time, dose: 108.0 mg/kg/injection, schedule: Q01DX009 (ip), vehicle: Klucel (hydroxypropylcellulose) (HPC) 93 % of control

Cc1ccc2c(c1)n([O-])c1cc(Cl)ccc1[n+]2=O
inactive: endpoint: median survival time, dose: 12.5 mg/kg/injection, schedule: Q01DX009 (ip), vehicle: saline with Tween-80 101 % of control and 111 % of control | endpoint: median survival time, dose: 25.0 mg/kg/injection, schedule: Q01DX009 (ip), vehicle: saline with Tween-80 120 % of control | endpoint: median survival time, dose: 30.0 mg/kg/injection, schedule: Q01DX009 (ip), vehicle: saline with Tween-80 108 % of control | endpoint: median survival time, dose: 50.0 mg/kg/injection, schedule: Q01DX009 (ip), vehicle: saline with Tween-80 114 % of control and 112 % of control | endpoint: median survival time, dose: 60.0 mg/kg/injection, schedule: Q01DX009 (ip), vehicle: saline with Tween-80 117 % of control | endpoint: median survival time, dose: 100.0 mg/kg/injection, schedule: Q01DX009 (ip), vehicle: saline with Tween-80 114 % of control and 122 % of control | endpoint: median survival time, dose: 167.0 mg/kg/injection, schedule: Q01DX009 (ip), vehicle: saline with Tween-80 123 % of control | endpoint: median survival time, dose: 200.0 mg/kg/injection, schedule: Q01DX009 (ip), vehicle: saline with Tween-80 124 % of control and 97 % of control | endpoint: median survival time, dose: 278.0 mg/kg/injection, schedule: Q01DX009 (ip), vehicle: saline with Tween-80 121 % of control

O=P(O)(O)Cc1ccccc1-c1ccccc1
inactive: endpoint: mean survival time, dose: 100.0 mg/kg/injection, schedule: Q01DX001 (ip), vehicle: saline 93 % of control | endpoint: mean survival time, dose: 200.0 mg/kg/injection, schedule: Q01DX001 (ip), vehicle: saline 94 % of control | endpoint: mean survival time, dose: 400.0 mg/kg/injection, schedule: Q01DX001 (ip), vehicle: saline 100 % of control

O=c1[nH]cnc2c1CN(c1ccc(Cl)cc1)C2
inactive: endpoint: mean survival time, dose: 75.0 mg/kg/injection, schedule: Q01DX001 (ip), vehicle: saline 101 % of control | endpoint: mean survival time, dose: 150.0 mg/kg/injection, schedule: Q01DX001 (ip), vehicle: saline 90 % of control | endpoint: mean survival time, dose: 300.0 mg/kg/injection, schedule: Q01DX001 (ip), vehicle: saline 93 % of control

CN1CC(C(=O)NC2CCCCC2)CC2c3cccc4[nH]cc(c34)CC21 (centres undefined)
inactive: [4] 96 % of control | [5] 92 % of control | [18] 102 % of control

CCCCCC(O)C(O)CC(O)C(O)CCCCCCCC(=O)O (centres undefined)
inactive: [5] 94 % of control | [18] 91 % of control | endpoint: mean survival time, dose: 400.0 mg/kg/injection, schedule: Q04DX003 (ip), vehicle: saline 100 % of control

CCSC(SCC)C(O)C(O)C1COC(C)(C)O1 (centres undefined)
inactive: [13] 93 % of control | [15] 93 % of control | [17] 101 % of control

COc1cc(-c2ccncc2)nc(OC)n1
inactive: endpoint: mean survival time, dose: 100.0 mg/kg/injection, schedule: Q04DX002 (ip), vehicle: saline with Tween-80 96 % of control | [6] 88 % of control

Cc1ccc(S(=O)(=O)N(O)S(=O)(=O)c2ccc(C)cc2)cc1
inactive: [13] 101 % of control | [7] 94 % of control | [15] 94 % of control | [9] 92 % of control | [17] 100 % of control | [11] 94 % of control

CCOC(=O)C1(C(=O)OCC)C(C)CC(O)N1C(=O)c1ccccc1[N+](=O)[O-] (centres undefined)
inactive: [1] 100 % of control | [2] 96 % of control | [3] 104 % of control

C=C(N=[N+]=[N-])c1ccccc1
inactive: endpoint: mean survival time, dose: 12.5 mg/kg/injection, schedule: Q01DX009 (ip), vehicle: other 110 % of control | endpoint: mean survival time, dose: 25.0 mg/kg/injection, schedule: Q01DX009 (ip), vehicle: other 100 % of control | endpoint: mean survival time, dose: 50.0 mg/kg/injection, schedule: Q01DX009 (ip), vehicle: other 100 % of control | endpoint: mean survival time, dose: 100.0 mg/kg/injection, schedule: Q01DX009 (ip), vehicle: other 102 % of control

CC(=O)OCC1OC(n2ncc3c(Nc4ccccc4)ncnc32)C(OC(C)=O)C1OC(C)=O (centres undefined)
inactive: endpoint: mean survival time, dose: 25.0 mg/kg/injection, schedule: Q01DX009 (ip), vehicle: saline with Tween-80 93 % of control | endpoint: mean survival time, dose: 50.0 mg/kg/injection, schedule: Q01DX009 (ip), vehicle: saline with Tween-80 100 % of control | [7] 87 % of control | [9] 100 % of control | [11] 100 % of control

CCCCC(CC)COP(OCC(CC)CCCC)OCC(CC)CCCC (centres undefined)
inactive: [7] 92 % of control | [9] 87 % of control

C=C(C)c1c2ccccc2cc2cccc(Sc3ccccc3)c12
inactive: [7] 95 % of control | [9] 93 % of control | [11] 95 % of control

O=S(=O)(NC1CCc2ccccc21)c1ccccc1 (centres undefined)
inactive: [8] 98 % of control | [10] 97 % of control | [12] 98 % of control

CC1(C)OCC(C(=O)C(OC(=O)c2ccccc2)C2COC(C)(C)O2)O1 (centres undefined)
inactive: endpoint: mean survival time, dose: 50.0 mg/kg/injection, schedule: Q01DX009 (ip), vehicle: Klucel (hydroxypropylcellulose) (HPC) 94 % of control | [14] 88 % of control | [16] 98 % of control
